According to patent publication US20260224566A1, “Obicetrapib and Ezetimibe Combination Treatment and Fixed Dose Pharmaceutical Compositions” (NewAmsterdam Pharma B.V., priority 2023, published 2026):

Columns and labels:
[1] = system: participants currently receiving high-intensity statin therapy; experiment: ROSE2 Phase 2b clinical trial: LDL-C and other lipid efficacy endpoints; format: in vivo, human; details: ROSE2; ezetimibe 10 mg on top of obicetrapib 10 mg
Method: The primary objective of this study is to evaluate the effect of obicetrapib 10 mg+ezetimibe 10 mg combination therapy compared with placebo, when used as an adjunct to high-intensity statin therapy, on LDL-C at Day 84.
The secondary objectives of this study include the following, in hierarchical order: • To evaluate the effect of obicetrapib 10 mg monotherapy compared with placebo, when used as an adjunct to high-intensity statin therapy, on LDL-C at Day 84; • To evaluate the effect of obicetrapib 10 mg+ezetimibe 10 mg combination therapy compared with placebo, when used as an adjunct to high-intensity statin therapy, on ApoB at Day 84; and • To evaluate the effect of obicetrapib 10 mg monotherapy compared with placebo, when used as an adjunct to high-intensity statin therapy, on ApoB at Day 84.
This study will be a placebo-controlled, double-blind, randomized, Phase 2 study to evaluate the efficacy, safety, and tolerability of obicetrapib 10 mg, both in combination with ezetimibe 10 mg and as monotherapy, as an adjunct to high-intensity statin therapy. This study will take place at approximately 20 sites in the United States.
Up to 2 weeks after the Screening Visit, participants will return to the site on Day 1 (Visit 2) and confirm study eligibility before being randomized and beginning treatment. Approximately 114 eligible participants (38 participants per treatment group) will be randomized in a 1:1:1 ratio to 1 of the following treatment groups: • Combination therapy: Obicetrapib 10 mg+ezetimibe 10 mg (administered as one 10 mg obicetrapib tablet and one 10 mg ezetimibe capsule); • Obicetrapib monotherapy: Obicetrapib 10 mg (administered as one 10 mg obicetrapib tablet and 1 placebo capsule); or. • Placebo (administered as 1 placebo tablet and 1 placebo capsule).
During the 12-week Treatment Period, the assigned study drugs will be administered by the participants orally with water, once daily on Day 1 to Day 84 at approximately the same time each morning. Participants will return to the site on Day 28 (±2 days), Day 84 (±2 days), and Day 112 (±2 days) for efficacy, safety, and pharmacokinetic (PK) assessments. Participants, Investigators, the Clinical Research Organization (CRO), and the Sponsor will be blinded to all lipid results from Day 1 (Visit 2) for the first participant until all enrolled participants complete the Day 84 (End of Treatment) visit or are withdrawn from the study, in order to protect blinding to treatment assignment.
The primary efficacy endpoint is the percent change from Day 1 to Day 84 in LDL-C for the obicetrapib 10 mg+ezetimibe 10 mg combination treatment group compared with the placebo group.
The secondary efficacy endpoints include the following, in hierarchical order: • Percent change from Day 1 to Day 84 in LDL-C for the obicetrapib 10 mg monotherapy. • treatment group compared with the placebo group; • Percent change from Day 1 to Day 84 in ApoB for the obicetrapib 10 mg+ezetimibe 10 mg • combination treatment group compared with the placebo group; and • Percent change from Day 1 to Day 84 in ApoB for the obicetrapib 10 mg monotherapy treatment group compared with the placebo group.
The exploratory efficacy endpoints include the following: • Percent change from Day 1 to Day 84 in non-HDL-C, VLDL-C, HDL-C, TG, ApoE, Lp(a), and HDL-ApoE for the obicetrapib 10 mg+ezetimibe 10 mg combination treatment group compared with the placebo group and for the obicetrapib 10 mg monotherapy treatment group compared with the placebo group; and • Proportion of participants at Day 84 that achieve LDL-C <2.6 mmol/L (<100 mg/dL), LDL-C <1.8 mmol/L (<70 mg/dL), and LDL-C <1.3 mmol/L (<50 mg/dL) for the obicetrapib 10 mg+ezetimibe 10 mg combination treatment group compared with the placebo group and for the obicetrapib 10 mg monotherapy treatment group compared with the placebo group. […]

[2] = system: ApoE*3-Leiden.CETP transgenic mice; experiment: Example 12: plasma lipids, VLDL clearance, LDL receptor, fecal and biliary sterols in ApoE*3-Leiden.CETP mice; format: in vivo, mouse
Excerpt: Obicetrapib is a selective cholesteryl ester transfer protein (CETP) inhibitor currently in clinical development for the treatment of hypercholesterolemia and reduction of cardiovascular risk that strongly reduces Apolipoprotein B (ApoB) and low-density lipoprotein cholesterol (LDL-C) and concomitantly increases plasma high-density lipoprotein cholesterol (HDL-C). Ezetimibe reduces absorption of biliary and dietary cholesterol from the small intestine, thereby reducing LDL-C levels. The current study was carried out to elucidate the mechanism of action responsible for the observed decrease in non-HDL-C by obicetrapib monotherapy and in combination with ezetimibe in a translational mouse model for hyperlipidemia and atherosclerosis.
The experimental protocol is illustrated in FIG. 71, with time (t) measured in weeks. Female ApoE*3-Leiden.CETP transgenic mice were fed a Western diet with 0.05% w/w cholesterol (equivalent to daily human intake) with (i) no drug (control), or the same diet containing (ii) obicetrapib alone (2 mg/kg/day), (iii) ezetimibe alone (1 mg/kg/day) or (iv) the combination of obicetrapib and ezetimibe. In the experiment, the effects of the treatments on, amongst other things, plasma blood lipids and fecal bile acids and sterols were determined.

[3] = system: ApoE*3-Leiden.CETP transgenic mice; experiment: Example 13: plasma cholesterol and atherosclerosis development in aortic root of ApoE*3-Leiden.CETP mice; format: in vivo, mouse
Method: The current study was carried out to evaluate the effect of obicetrapib monotherapy and a combination of obicetrapib+ezetimibe on atherosclerosis development in a translational mouse model for hyperlipidemia and atherosclerosis.
The experimental protocol is illustrated in FIG. 82, with time (t) measured in weeks. Female ApoE*3-Leiden.CETP transgenic mice were fed a Western diet with 0.05% w/w cholesterol (equivalent to daily human intake) with (i) no drug (control), or the same diet containing (ii) obicetrapib alone (2 mg/kg/day), (iii) ezetimibe alone (on average 0.6 mg/kg/day) or (iv) the combination of obicetrapib and ezetimibe.

[4] = cited from earlier work
[5] = system: patients with hypercholesterolemia; details: cited from earlier work
[6] = obicetrapib 2 mg/kg/day, ezetimibe 1 mg/kg/day in Western diet
[7] = obicetrapib 2 mg/kg/day, ezetimibe on average 0.6 mg/kg/day in Western diet

## O=C1[C@H](CC[C@H](O)c2ccc(F)cc2)[C@@H](c2ccc(O)cc2)N1c1ccc(F)cc1 [ezetimibe, (3R,4S)-1-(4-fluorophenyl)-3-[(3S)-3-(4-fluorophenyl)-3-hydroxypropyl]-4-(4-hydroxyphenyl)azetidin-2-one]
[1]
  additional/incremental (median) reduction of LDL-C of ezetimibe added on top of obicetrapib: about 32%
[2]; not shown
  biliary bile acids and biliary bile acid flow: did not affect
  biliary cholesterol flow: no significant effects
  biliary cholesterol levels: decreased
  biliary phospholipids and biliary phospholipid flow: did not affect
[2]; [6]
  fecal neutral sterol excretion, change: +68%
  half-life of VLDL-like particles, change: −23%
  non-HDL-C levels, change: −24%
  total plasma cholesterol levels, change: −23%
[3]; FIG. 84B
  HDL-cholesterol: no increase
[3]; aortic root, 28 weeks of treatment
  severe lesions (types IV-V), change: −31%
[3]; aortic root, 28 weeks of treatment, versus control
  total atherosclerotic lesion size, change: −50%
[3]; [7]
  non-HDL-C levels, change: −19%
  total plasma cholesterol levels, change: −19%
[3]; versus control animals, FIG. 90B
  lesion number: no reduction
[4]
  solubility in water: practically insoluble
[5]; Catapano et al. 2016
  incremental reduction in LDL-C levels in combination with statins: 15-20%
[5]; hyperlipidemic patients, Catapano et al. 2016
  LDL-C reduction typical with ezetimibe mono-therapy: 15-22%
[5]; meta-analysis of 27 studies, more than 21,000 patients
  greater reduction in LDL-C, statin and ezetimibe in combination compared with statin alone: 15.1%
